Measurements: ChEMBL document CHEMBL1201862, “PubChem BioAssay data set” (2004)
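Tested at 5 concentrations; 48 h exposure; 96-well plates; endpoints linearly interpolated, else capped at highest concentration. Abbreviation: GI50, concentration required for 50% inhibition of growth.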 The source made the active and inactive calls. No stated cut-off is given here; in the data, active = GI50 up to about 1.1 µM and inactive = higher. Where a SMILES comes first, the peptide text is derived from it. The star is where a group is joined. Boc = CC(C)(C)OC(=O)*; tBu = CC(C)(C)*

Tests used:
Test in all cases: DTP human tumour cell line panel, 48 h
[1] = test system: HT-29
[2] = test system: TK-10
[3] = test system: ACHN
[4] = test system: SK-MEL-2
[5] = test system: UACC-257
[6] = test system: OVCAR-3
[7] = test system: MOLT-4
[8] = test system: KM12
[9] = test system: SN12C
[10] = test system: SW-620
[11] = test system: SR
[12] = test system: HCT-116
[13] = test system: RXF 393
[14] = test system: NCI/ADR-RES
[15] = test system: OVCAR-4
[16] = test system: NCI-H460
[17] = test system: T47D
[18] = test system: MDA-N
[19] = test system: HL-60
[20] = test system: Hs-578T

| SMILES | GI50 [1] | GI50 [2] | GI50 [3] | GI50 [4] | GI50 [5] | GI50 [6] | GI50 [7] | GI50 [8] | GI50 [9] | GI50 [10] | GI50 [11] | GI50 [12] | GI50 [13] | GI50 [14] | GI50 [15] | GI50 [16] | GI50 [17] | GI50 [18] | GI50 [19] | GI50 [20] |
| --- | --- | --- | --- | --- | --- | --- | --- | --- | --- | --- | --- | --- | --- | --- | --- | --- | --- | --- | --- | --- |
| COc1ccc(NC(=O)CC(=O)N2N=C(C)C(/N=N\c3ccc(S(=O)(=O)c4ccc(/N=N/C5C(=O)N(C(=O)CC(=O)Nc6ccc(OC)cc6)N=C5C)cc4)cc3)C2=O)cc1 (stereo not given) | > 100 µM (inactive) | > 100 µM (inactive) | > 100 µM (inactive) | > 100 µM (inactive) | > 100 µM (inactive) | > 100 µM (inactive) | > 100 µM (inactive) | > 100 µM (inactive) | > 100 µM (inactive) | > 100 µM (inactive) | > 100 µM (inactive) | > 100 µM (inactive) | 31.3 µM (inactive) | > 100 µM (inactive) | > 100 µM (inactive) | > 100 µM (inactive) | > 100 µM (inactive) | > 100 µM (inactive) | > 100 µM (inactive) | 25 µM (inactive) |
| COc1ccc(/C=C/C(=O)c2cc(OC)cc(OC)c2)cc1 | 1.91 µM (inactive) | 11.5 µM (inactive) | 4.7 µM (inactive) | 18.7 µM (inactive) | 13.6 µM (inactive) | 4.02 µM (inactive) | 4.63 µM (inactive) | 0.265 µM (active) | 3.56 µM (inactive) | 0.64 µM (active) | 0.371 µM (active) | 1.22 µM (inactive) | 3.33 µM (inactive) | 2.69 µM (inactive) | 3.45 µM (inactive) | 2.9 µM (inactive) | 3.11 µM (inactive) | 1.94 µM (inactive) | 0.151 µM (active) | 5.75 µM (inactive) |
| Cc1cccc(C)c1NC(=O)C(Cc1c[nH]c2ccccc12)NC(=O)OCc1ccccc1 (stereo not given) | 18.7 µM (inactive) | 19.2 µM (inactive) | 19.8 µM (inactive) | 16.9 µM (inactive) | 14.5 µM (inactive) | 22.9 µM (inactive) | 15.4 µM (inactive) | 19.6 µM (inactive) | 21.5 µM (inactive) | 27.8 µM (inactive) | 22.5 µM (inactive) | 23.9 µM (inactive) | 13.9 µM (inactive) | 14.4 µM (inactive) | 8.04 µM (inactive) | 17.7 µM (inactive) | 20.6 µM (inactive) | 15.7 µM (inactive) | 12.4 µM (inactive) | 33.1 µM (inactive) |
| CC(c1ccccc1)N1CCN(C(C)c2ccccc2)CC1 (stereo not given) | 44.8 µM (inactive) | > 100 µM (inactive) | > 100 µM (inactive) | 35.2 µM (inactive) | 68.7 µM (inactive) | 35.4 µM (inactive) | 39.5 µM (inactive) | > 100 µM (inactive) | > 100 µM (inactive) | > 100 µM (inactive) | 35.8 µM (inactive) | 43.5 µM (inactive) | 79.6 µM (inactive) | > 100 µM (inactive) | > 100 µM (inactive) | 65.2 µM (inactive) | > 100 µM (inactive) | 45.6 µM (inactive) | > 100 µM (inactive) | > 100 µM (inactive) |
| COc1c(C)c(OC)c2c(c1O)[C@@H]1[C@@H]3Cc4c(OC)c(C)c(OC)c(O)c4[C@H](CNC(=O)c4cnc5ccccc5n4)N3[C@@H](C#N)[C@H](C2)N1C | 0.00206 µM (active) | 0.00771 µM (active) | 0.00348 µM (active) | 0.00183 µM (active) | 0.00296 µM (active) | 0.00214 µM (active) | 0.000689 µM (active) | 0.00149 µM (active) | 0.00329 µM (active) | 0.002 µM (active) | 0.000182 µM (active) | 0.00222 µM (active) | 0.00341 µM (active) | > 0.0643 µM (active) | 0.002 µM (active) | 0.004 µM (active) | 0.000522 µM (active) | 0.00138 µM (active) | 0.00153 µM (active) | 0.00134 µM (active) |
| CCOc1ccc(/N=N/C2C(=O)N(C(=O)CC(=O)Nc3ccccc3)N=C2C)cc1 (stereo not given) | 33.6 µM (inactive) | > 100 µM (inactive) | > 100 µM (inactive) | 66.4 µM (inactive) | > 100 µM (inactive) | 53.8 µM (inactive) | 36.5 µM (inactive) | 18.6 µM (inactive) | 82 µM (inactive) | 33.4 µM (inactive) | 27.4 µM (inactive) | 29.1 µM (inactive) | > 100 µM (inactive) | 75.7 µM (inactive) | > 100 µM (inactive) | 34.6 µM (inactive) | 30.8 µM (inactive) | 2.68 µM (inactive) | 33.8 µM (inactive) | 16 µM (inactive) |
| O=C(O)C1C2C=CC(O2)C1C(=O)NCc1cccnc1 (stereo not given) | > 100 µM (inactive) | > 100 µM (inactive) | > 100 µM (inactive) | > 100 µM (inactive) | 72.6 µM (inactive) | > 100 µM (inactive) | > 100 µM (inactive) | > 100 µM (inactive) | > 100 µM (inactive) | > 100 µM (inactive) | > 100 µM (inactive) | > 100 µM (inactive) | > 100 µM (inactive) | > 100 µM (inactive) | > 100 µM (inactive) | > 100 µM (inactive) | > 100 µM (inactive) | > 100 µM (inactive) | > 100 µM (inactive) | 51.8 µM (inactive) |
| CC(OC(C)(C)C)C(NC(=O)C(N)CCCCNC(=O)OC(C)(C)C)C(=O)NC(Cc1ccccc1)C(=O)O (stereo not given) (H-Lys(Boc)-Thr(tBu)-Phe-OH; configuration not given here) | > 100 µM (inactive) | > 100 µM (inactive) | > 100 µM (inactive) | > 100 µM (inactive) | > 100 µM (inactive) | > 100 µM (inactive) | > 100 µM (inactive) | > 100 µM (inactive) | > 100 µM (inactive) | > 100 µM (inactive) | > 100 µM (inactive) | > 100 µM (inactive) | > 100 µM (inactive) | > 100 µM (inactive) | > 100 µM (inactive) | > 100 µM (inactive) | > 100 µM (inactive) | > 100 µM (inactive) | > 100 µM (inactive) | > 100 µM (inactive) |
| CCC(=C/[C@H](C)C/C=C/C(C)=C/[C@@H](C)C(=O)[C@@H](C)[C@H](O)[C@@H](C)CC)/C=C/[C@H]1CC=CC(=O)O1 [CALLYSTATIN A] | < 0.0012 µM (active) | < 0.0012 µM (active) | < 0.0012 µM (active) | < 0.0012 µM (active) | < 0.0012 µM (active) | < 0.0012 µM (active) | 0.0887 µM (active) | < 0.0012 µM (active) | < 0.0012 µM (active) | < 0.0012 µM (active) | < 0.0012 µM (active) | < 0.0012 µM (active) | < 0.0012 µM (active) | < 0.0012 µM (active) | < 0.0012 µM (active) | < 0.0012 µM (active) | < 0.0012 µM (active) | < 0.0012 µM (active) | < 0.0012 µM (active) | < 0.0012 µM (active) |
